Test results from patent US9834554B2, “BTK inhibitors” (MERCK SHARP & DOHME CORP., priority 2013, dated 2017).

target: BTK enzyme (recombinant full-length BTK, hBTK) (Homo sapiens (Human), UniProt Q06187); assay: Btk enzyme activity assay, LANCE TR-FRET; conditions: not given
Sequence (Q06187 whole entry): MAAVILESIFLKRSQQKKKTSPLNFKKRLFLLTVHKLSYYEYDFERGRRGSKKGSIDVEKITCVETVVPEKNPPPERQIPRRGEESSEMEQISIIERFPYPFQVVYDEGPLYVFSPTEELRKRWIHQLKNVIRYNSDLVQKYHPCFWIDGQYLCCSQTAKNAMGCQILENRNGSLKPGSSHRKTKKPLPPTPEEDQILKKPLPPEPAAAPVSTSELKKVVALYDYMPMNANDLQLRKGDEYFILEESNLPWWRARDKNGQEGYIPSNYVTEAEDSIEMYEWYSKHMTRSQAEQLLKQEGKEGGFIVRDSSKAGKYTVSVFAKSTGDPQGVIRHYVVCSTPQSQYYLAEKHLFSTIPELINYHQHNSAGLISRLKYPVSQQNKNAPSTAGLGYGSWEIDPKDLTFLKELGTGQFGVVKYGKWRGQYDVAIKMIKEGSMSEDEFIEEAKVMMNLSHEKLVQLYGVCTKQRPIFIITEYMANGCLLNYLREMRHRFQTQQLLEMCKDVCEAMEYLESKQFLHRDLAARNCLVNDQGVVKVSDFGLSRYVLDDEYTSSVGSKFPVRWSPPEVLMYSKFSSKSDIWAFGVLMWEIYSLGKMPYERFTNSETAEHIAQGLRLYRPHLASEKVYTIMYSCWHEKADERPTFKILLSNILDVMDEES

IC50 [nM] | Compound
2.2 | N#CC1(C(=O)N2CCC[C@@H](c3nn(-c4ccc(C(=O)Nc5cc(C(F)(F)F)ccn5)cc4)c4c(N)nccc34)C2)CC1 [Example 27, 4-(7-amino-3-{(3R)-1-[(1-cyanocyclopropyl)carbonyl]piperidin-3-yl}-1H-pyrazolo[3,4-c]pyridin-1-yl)-N-[4-(trifluoromethyl)pyridin-2-yl]benzamide]

same assay, conditions: read-out: BTK binding IC50; 50 pM hBTK, 2 μM biotin-A5-peptide, 25 μM ATP; 60 minute compound & enzyme incubation

Compound | IC50 [nM]
Nc1nccc2c([C@@H]3CCCN(C(=O)c4cnon4)C3)nn(-c3ccc(C(=O)Nc4cc(C(F)(F)F)ccn4)cc3)c12 [Example 13, 4-{7-amino-3-[(3R)-1-(1,2,5-oxadiazol-3-ylcarbonyl)piperidin-3-yl]-1H-pyrazolo[3,4-c]pyridin-1-yl}-N-[4-(trifluoromethyl)pyridin-2-yl]benzamide] | 4.7
COCCC(=O)N1CCC[C@@H](c2nn(-c3ccc(C(=O)Nc4cc(C(F)(F)F)ccn4)cc3)c3c(N)nccc23)C1 [Example 16, 4-{7-amino-3-[(3R)-1-(3-methoxypropanoyl)piperidin-3-yl]-1H-pyrazolo[3,4-c]pyridin-1-yl}-N-[4-(trifluoromethyl)pyridin-2-yl]benzamide] | 0.51
COCC(=O)N1CCC[C@@H](c2nn(-c3ccc(C(=O)Nc4cc(C(F)(F)F)ccn4)cc3)c3c(N)nccc23)C1 [Example 18, 4-{7-amino-3-[(3R)-1-(methoxyacetyl)piperidin-3-yl]-1H-pyrazolo[3,4-c]pyridin-1-yl}-N-[4-(trifluoromethyl)pyridin-2-yl]benzamide] | 0.9
CC(C)C(=O)N1CCC[C@@H](c2nn(-c3ccc(C(=O)Nc4cc(C(F)(F)F)ccn4)cc3)c3c(N)nccc23)C1 [Example 19, 4-{7-amino-3-[(3R)-1-(2-methylpropanoyl)piperidin-3-yl]-1H-pyrazolo[3,4-c]pyridin-1-yl}-N-[4-(trifluoromethyl)pyridin-2-yl]benzamide] | 1.2
Nc1nccc2c([C@@H]3CCCN(C(=O)C4(O)CC4)C3)nn(-c3ccc(C(=O)Nc4cc(C(F)(F)F)ccn4)cc3)c12 [Example 25, 4-(7-amino-3-{(3R)-1-[(1-hydroxycyclopropyl)carbonyl]piperidin-3-yl}-1H-pyrazolo[3,4-c]pyridin-1-yl)-N-[4-(trifluoromethyl)pyridin-2-yl]benzamide] | 0.59
COc1ccnc(NC(=O)c2ccc(-n3nc([C@@H]4CCCN(C(=O)C5(C)COC5)C4)c4ccnc(N)c43)cc2)c1 [Example 28, (R)-4-(7-amino-3-(1-(3-methyloxetane-3-carbonyl)piperidin-3-yl)-1H-pyrazolo[3,4-c]pyridin-1-yl)-N-(4-methoxypyridin-2-yl)benzamide 2,2,2-trifluoroacetate] | 0.49
COc1ccnc(NC(=O)c2ccc(-n3nc([C@@H]4CCCN(C(=O)C(C)(CO)CO)C4)c4ccnc(N)c43)cc2)c1 [Example 29, (R)-4-(7-amino-3-(1-(3-hydroxy-2-(hydroxymethyl)-2-methylpropanoyl)piperidin-3-yl)-1H-pyrazolo[3,4-c]pyridin-1-yl)-N-(4-methoxypyridin-2-yl)benzamide 2,2,2-trifluoroacetate] | 1.6
C[C@H]1CC[C@@H](c2nn(-c3ccc(C(=O)Nc4cc(C5CC5)ccn4)cc3)c3c(N)nccc23)CN1C(=O)C1CC1 [Example 31, 4-{7-amino-3-[(3R,6S)-1-(cyclopropylcarbonyl)-6-methylpiperidin-3-yl]-1H-pyrazolo[3,4-c]pyridin-1-yl}-N-(4-cyclopropylpyridin-2-yl)benzamide] | 1.3
CO[C@@H](C)C(=O)N1C[C@H](c2nn(-c3ccc(C(=O)Nc4cc(C5CC5)ccn4)cc3)c3c(N)nccc23)CC[C@@H]1C [Example 33, 4-(7-amino-3-{(3R,6S)-1-[(2S)-2-methoxypropanoyl]-6-methylpiperidin-3-yl}-1H-pyrazolo[3,4-c]pyridin-1-yl)-N-(4-cyclopropylpyridin-2-yl)benzamide] | 2
C[C@H]1CC[C@@H](c2nn(-c3ccc(C(=O)Nc4cccc(OC5CC5)c4)cc3)c3c(N)nccc23)CN1C(=O)C1(C)COC1 [Example 35, 4-(7-amino-3-((3R,6S)-6-methyl-1-(3-methyloxetane-3-carbonyl)piperidin-3-yl)-1H-pyrazolo[3,4-c]pyridin-1-yl)-N-(3-cyclopropoxyphenyl)benzamide] | 0.96

Other lines, results leading:

IC50 [nM] | Compound
30.4 | C[C@@H](O)C(=O)N1C[C@H](c2nn(-c3ccc(C(=O)Nc4cccc(OC5CC5)c4)cc3)c3c(N)nccc23)CC[C@@H]1C [Example 36, 4-(7-amino-3-((3R,6S)-1-((R)-2-hydroxypropanoyl)-6-methylpiperidin-3-yl)-1H-pyrazolo[3,4-c]pyridin-1-yl)-N-(3-cyclopropoxyphenyl)benzamide]
5.3 | Cc1noc(C)c1C(=O)N1CCC[C@@H](c2nn(-c3ccc(C(=O)Nc4cc(C(F)(F)F)ccn4)cc3)c3c(N)nccc23)C1 [Example 15, 4-(7-amino-3-{(3R)-1-[(3,5-dimethylisoxazol-4-yl)carbonyl]piperidin-3-yl}-1H-pyrazolo[3,4-c]pyridin-1-yl)-N-[4-(trifluoromethyl)pyridin-2-yl]benzamide]
3.5 | Nc1nccc2c([C@@H]3CCCN(C(=O)CC4CCC4)C3)nn(-c3ccc(C(=O)Nc4cc(C(F)(F)F)ccn4)cc3)c12 [Example 14, 4-{7-amino-3-[(3R)-1-(cyclobutylacetyl)piperidin-3-yl]-1H-pyrazolo[3,4-c]pyridin-1-yl}-N-[4-(trifluoromethyl)pyridin-2-yl]benzamide]
3 | Nc1nccc2c([C@@H]3CCCN(C(=O)C4CC4(F)F)C3)nn(-c3ccc(C(=O)Nc4cc(C(F)(F)F)ccn4)cc3)c12 (stereo partly drawn) [Example 12, 4-(7-amino-3-{(3R)-1-[(2,2-difluorocyclopropyl)carbonyl]piperidin-3-yl}-1H-pyrazolo[3,4-c]pyridin-1-yl)-N-[4-(trifluoromethyl)pyridin-2-yl]benzamide]
2.5 | Nc1nccc2c([C@@H]3CCCN(C(=O)C4CC(F)(F)C4)C3)nn(-c3ccc(C(=O)Nc4cc(C(F)(F)F)ccn4)cc3)c12 [Example 17, 4-(7-amino-3-{(3R)-1-[(3,3-difluorocyclobutyl)carbonyl]piperidin-3-yl}-1H-pyrazolo[3,4-c]pyridin-1-yl)-N-[4-(trifluoromethyl)pyridin-2-yl]benzamide]
2.1 | COc1cc(C(=O)Nc2cccc(C(F)(F)F)c2)ccc1-n1nc([C@@H]2CC[C@H](C)N(C(=O)C3CC3)C2)c2ccnc(N)c21 [Example 37, 4-(7-amino-3-((3R,6S)-1-(cyclopropanecarbonyl)-6-methylpiperidin-3-yl)-1H-pyrazolo[3,4-c]pyridin-1-yl)-3-methoxy-N-(3-(trifluoromethyl)phenyl)benzamide]
1.6 | Nc1nccc2c([C@@H]3CCCN(C(=O)C4CCC4)C3)nn(-c3ccc(C(=O)Nc4cc(C(F)(F)F)ccn4)cc3)c12 [Example 20, 4-{7-amino-3-[(3R)-1-(cyclobutylcarbonyl)piperidin-3-yl]-1H-pyrazolo[3,4-c]pyridin-1-yl}-N-[4-(trifluoromethyl)pyridin-2-yl]benzamide]
1.6 | C[C@H](O)C(=O)N1C[C@H](c2nn(-c3ccc(C(=O)Nc4cc(C5CC5)ccn4)cc3)c3c(N)nccc23)CC[C@@H]1C [Example 32, 4-(7-amino-3-{(3R,6S)-1-[(2S)-2-hydroxypropanoyl]-6-methylpiperidin-3-yl}-1H-pyrazolo[3,4-c]pyridin-1-yl)-N-(4-cyclopropylpyridin-2-yl)benzamide]
1.2 | CCOCC(=O)N1CCC[C@@H](c2nn(-c3ccc(C(=O)Nc4cc(C(F)(F)F)ccn4)cc3)c3c(N)nccc23)C1 [Example 22, 4-{7-amino-3-[(3R)-1-(ethoxyacetyl)piperidin-3-yl]-1H-pyrazolo[3,4-c]pyridin-1-yl}-N-[4-(trifluoromethyl)pyridin-2-yl]benzamide]
1.2 | COCCOCC(=O)N1CCC[C@@H](c2nn(-c3ccc(C(=O)Nc4cc(C(F)(F)F)ccn4)cc3)c3c(N)nccc23)C1 [Example 23, 4-(7-amino-3-{(3R)-1-[(2-methoxyethoxy)acetyl]piperidin-3-yl}-1H-pyrazolo[3,4-c]pyridin-1-yl)-N-[4-(trifluoromethyl)pyridin-2-yl]benzamide]
0.98 | C[C@H]1CC[C@@H](c2nn(-c3ccc(C(=O)Nc4cc(C5CC5)ccn4)cc3)c3c(N)nccc23)CN1C(=O)C1(C)COC1 [Example 30, 4-(7-amino-3-((3R,6S)-6-methyl-1-(3-methyloxetane-3-carbonyl)piperidin-3-yl)-1H-pyrazolo[3,4-c]pyridin-1-yl)-N-(4-cyclopropylpyridin-2-yl)benzamide]
0.87 | C[C@H]1CC[C@@H](c2nn(-c3ccc(C(=O)Nc4cccc(OC5CC5)c4)cc3)c3c(N)nccc23)CN1C(=O)C1CC1 [Example 34, 4-(7-amino-3-((3R,6S)-1-(cyclopropanecarbonyl)-6-methylpiperidin-3-yl)-1H-pyrazolo[3,4-c]pyridin-1-yl)-N-(3-cyclopropoxyphenyl)benzamide]
0.86 | Nc1nccc2c([C@@H]3CCCN(C(=O)C4CC4)C3)nn(-c3ccc(C(=O)Nc4cc(C(F)(F)F)ccn4)cc3)c12 [Example 24, 4-{7-amino-3-[(3R)-1-(cyclopropylcarbonyl)piperidin-3-yl]-1H-pyrazolo[3,4-c]pyridin-1-yl}-N-[4-(trifluoromethyl)pyridin-2-yl]benzamide]
0.81 | CC1(C(=O)N2CCC[C@@H](c3nn(-c4ccc(C(=O)Nc5cc(C(F)(F)F)ccn5)cc4)c4c(N)nccc34)C2)CC1 [Example 26, 4-(7-amino-3-{(3R)-1-[(1-methylcyclopropyl)carbonyl]piperidin-3-yl}-1H-pyrazolo[3,4-c]pyridin-1-yl)-N-[4-(trifluoromethyl)pyridin-2-yl]benzamide]
0.53 | CC(=O)N1CCC[C@@H](c2nn(-c3ccc(C(=O)Nc4cc(C(F)(F)F)ccn4)cc3)c3c(N)nccc23)C1 [Example 21, 4-{3-[(3R)-l-acetylpiperidin-3-yl]-7-amino-1H-pyrazolo[3,4-c]pyridin-1-yl}-N-[4-(trifluoromethyl)pyridin-2-yl]benzamide]
